Measured values taken from patent publication US9914722B2, “Compounds for treating spinal muscular atrophy” (PTC Therapeutics Inc., priority 2012, dated 2018).
“Also recorded” adds a separate entry of the source.

Experiments:
[1] = system: Smn protein; assay: Smn protein assay (Smn HTRF) in cultured cells; assay type: cell-based, human; settings: for maximal fold induction / EC (1.5-fold): Homo sapiens, Fibroblast, GM03813 SMA Type 1 patient fibroblasts, 48 hours, HTRF; for maximal fold induction: 7-point concentration data, relative to vehicle, read-out: maximum fold (Fold) increase of Smn protein; for EC (1.5-fold): concentration producing 1.5 times Smn protein vs DMSO vehicle, read-out: EC1.5x for Smn protein expression; for Smn protein expression: SMA Type 1 patient fibroblast cells, 48 hour, SMN HTRF assay, FIG. 6
How it was run: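 SMA patient fibroblasts (5,000/well) were exposed to a 7-point, 3.16-fold compound dilution series for 48 hours at 37° C, in triplicate. Lysates were read by HTRF with anti-SMN d2/kryptate at 665/620 nm. Blank-corrected signal was expressed as fold over DMSO vehicle, giving the EC1.5x and the maximum fold increase.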

[2] = system: gems (Smn-dependent nuclear speckles) in SMA patient fibroblast cells; assay: Gems count (Smn-dependent nuclear speckle count) assay; assay type: cell-based, human; settings: Type 1 SMA patient fibroblasts, 48 hour, fluorescence microscopy, relative to DMSO, FIG. 7
Text: Gems Count (Smn-Dependent Nuclear Speckle Count) Assay
The level of Smn protein directly correlates with the amount of nuclear foci, also known as gems, produced upon staining the cell with a fluorescently labeled anti-Smn antibody (Liu and Dreyfuss, EMBO J., 1996, 15:3555). Gems are multi-protein complexes whose formation is nucleated by the Smn protein and the gems count assay is used to evaluate the level of Smn protein in the cell. As described herein, the gems count assay is used to quantify the level of Smn protein in SMA patient fibroblast cells treated with a test compound.
Protocol: Cells are thawed and incubated in DMEM-10% FBS for 72 hours, then trypsinized, counted and resuspended to 100,000 cells/mL in DMEM-10% FBS. The cell suspension (2 mL) is plated in a 6-well cell culture plate with a sterile cover slip and incubated for 3 to 5 hours. Test compounds are serially diluted 3.16-fold in 100% DMSO to generate a 7-point dilution curve. […]
Cell culture medium is aspirated from the wells containing cover slips and gently washed three times with cold PBS. […] The number of gems is counted per ≧150 nuclei and % activation is calculated using DMSO and 10 nM bortezomib as controls. For each test compound, the cells are examined at all wavelengths to identify test compounds with inherent fluorescence.

Row | SMILES | maximal fold induction [1] | EC (1.5-fold) [1] [µM] | Smn protein expression [1] | nuclear speckle counts (gems) [2]
1 | C[C@@H]1CN(c2ccc3oc(-c4cn5ccccc5n4)cc(=O)c3c2)C[C@H](C)N1 [Cpd 17, 6-[(3R,5S)-3,5-dimethylpiperazin-1-yl]-2-(imidazo[1,2-a]pyridin-2-yl)-4H-chromen-4-one] | > 1.65 | 1 to 3 | dose dependent increase in Smn protein expression | 
2 | COc1ccc(-c2cc(=O)c3cc(N4CCN[C@@H](C)C4)ccc3o2)cc1F [Cpd 38, 2-(3-fluoro-4-methoxyphenyl)-6-[(3S)-3-methylpiperazin-1-yl]-4H-chromen-4-one] | 1.5 to 1.65 | 0.3 to 1 | dose dependent increase in Smn protein expression | progressively more gems relative to cells treated with DMSO; also recorded: increase in nuclear speckle counts (gems)
